The assay has as its target T1, human dopamine D4 receptor subtype (Homo sapiens, UniProt P21917).
T1 sequence (P21917 1-419): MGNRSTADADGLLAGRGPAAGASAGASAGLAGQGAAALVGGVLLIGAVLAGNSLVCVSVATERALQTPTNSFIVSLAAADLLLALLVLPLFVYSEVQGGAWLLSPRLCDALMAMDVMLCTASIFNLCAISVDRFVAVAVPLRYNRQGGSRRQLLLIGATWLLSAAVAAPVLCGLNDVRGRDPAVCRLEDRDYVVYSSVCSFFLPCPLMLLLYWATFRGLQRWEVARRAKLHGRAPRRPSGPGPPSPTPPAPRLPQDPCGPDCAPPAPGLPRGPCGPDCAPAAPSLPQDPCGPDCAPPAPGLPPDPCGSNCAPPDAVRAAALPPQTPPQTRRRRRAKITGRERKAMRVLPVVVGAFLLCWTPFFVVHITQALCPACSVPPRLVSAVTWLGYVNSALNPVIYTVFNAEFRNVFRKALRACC
Put plainly: [3H]-Spiperone binding (displacement) studies, human dopamine D4 receptor subtype expressed in clonal cell lines. Particulars: 0.2 nM [3H]-spiperone for displacement; 60 min, room temperature (22° C.), pH 7.4; membranes of clonal cell lines; read-out: Ki value for displacement of [3H]-spiperone from the human dopamine D4 receptor subtype. As to the method: Moreover, these salts display a selective affinity for the D4 subtype relative to the D2 subtype.
Clonal cell lines expressing the human dopamine D4 receptor subtype were harvested in PBS and then lysed in 10 mM Tris-HCl pH 7.4 buffer containing 5 mM MgSO4 for 20 min on ice. Membranes were centrifuged at 50,000 g for 15 min at 4° C. and the resulting pellets resuspended in assay buffer (50 mM Tris-HCl pH 7.4 containing 5 mM EDTA, 1.5 mM CaCl2, 5 mM MgCl2, 5 mM KCl, 120 mM NaCl, and 0.1% ascorbic acid) at 20 mg/ml wet weight. Incubations were carried out for 60 min at room temperature (22° C.) in the presence of 0.05-2 nM [^3 H]-spiperone or 0.2 nM for displacement studies and were initiated by addition of 20-100 μg protein in a final assay volume of 0.5 ml. The incubation was terminated by rapid filtration over GF/B filters presoaked in 0.3% PEI and washed with 10 ml ice-cold 50 mM Tris-HCl, pH 7.4. Specific binding was determined by 10 μM apomorphine and radioactivity determined by counting in a LKB beta counter. Binding parameters were determined by non-linear least squares regression analysis, from which the inhibition constant Ki could be calculated for each test compound.

pKi: −log10 of the molar value. Where a name gives a salt, the structure may show the parent alone.

For the compound `C1=C(/C=C/c2ccccc2)CCN(Cc2coc3ccccc23)C1` [Example 1, (E)-3-[4-(2-Phenylethenyl)-1,2,3,6-tetrahydropyridin-1-yl]methylbenzo[b]furan methanesulfonate salt], the pKi is above 5.82.

Source of the values: patent publication US5681836A, “Methanesulfonate salts of antipsychotic benzofuran derivatives” (Merck, Sharp & Dohme, Ltd., priority 1995, dated 1997).
